Drawing on patent US8106055B2, “Substituted amide compounds” (Gruenenthal GmbH, priority 2007, dated 2012), this text covers inhibition for ten compounds.

Assay [1] addresses T1, bradykinin 1 receptor (B1R) of the rat (Rattus norvegicus, UniProt P97583).
T1 construct: expressed in transfected cells; host or cells: CHO K1 cells
T1 sequence (P97583 1-337): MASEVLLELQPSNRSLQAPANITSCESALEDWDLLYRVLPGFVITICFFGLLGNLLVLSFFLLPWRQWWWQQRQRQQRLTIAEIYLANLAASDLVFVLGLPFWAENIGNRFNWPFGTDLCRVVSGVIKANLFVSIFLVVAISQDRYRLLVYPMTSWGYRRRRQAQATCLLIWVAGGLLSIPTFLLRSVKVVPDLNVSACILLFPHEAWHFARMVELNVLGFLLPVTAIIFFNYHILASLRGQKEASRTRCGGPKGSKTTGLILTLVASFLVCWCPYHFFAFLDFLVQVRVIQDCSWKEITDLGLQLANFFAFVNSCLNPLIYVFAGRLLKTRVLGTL
Briefly: Functional investigation on the rat bradykinin 1 receptor (B1R), Ca2+ FLIPR assay in CHO K1 rB1R cells. The format is cell-based. As to conditions: CHO-K1, B1R antagonism rat; test substance 10 μM; Ca2+ FLIPR, CHO K1 rB1R cells; read-out: B1R Ant. r [10 μM] % Inhibition. The source says: Functional Investigation on the Human Bradykinin 1 Receptor (B1R)
The agonistic or antagonistic action of substances can be determined on the bradykinin 1 receptor (B1R) of the human species and rats with the following assay. In accordance with this assay, the Ca^2+ inflow through the channel is quantified with the aid of a Ca^2=-sensitive dyestuff (type Fluo-4, Molecular Probes Europe BV, Leiden, Holland) in a fluorescent imaging plate reader (FLIPR, Molecular Devices, Sunnyvale, USA).
Chinese hamster ovary cells (CHO K1 cells) transfected stably with the human B1R gene (hB1R cells) or the B1R gene of the rat (rB1R cells) are used. For functional studies, these cells are plated out on black 96-well plates with a clear base (BD Biosciences, Heidelberg, Germany or Greiner, Frickenhausen, Germany) in a density of 20,000-35,000 cells/well. The cells are left overnight at 37° C. and 5% CO2 in culture medium (hB1R cells: Nutrient Mixture Ham's F12, Gibco Invitrogen GmbH, Karlsruhe, Germany or DMEM, Sigma-Aldrich, Taufkirchen, Germany; rB1R cells: D-MEM/F12, Gibco Invitrogen GmbH, Karlsruhe, Germany) with 10 vol. % of FBS (foetal bovine serum, Gibco Invitrogen GmbH, Karlsruhe, Germany or PAN Biotech GmbH, Aidenbach, Germany).
On the following day, the cells are loaded for 60 min at 37° C. with 2.13 μM Fluo-4 (Molecular Probes Europe BV, Leiden, The Netherlands) in HBSS buffer (Hank's buffered saline solution, Gibco Invitrogen GmbH, Karlsruhe, Germany) with 2.5 mM probenecid (Sigma-Aldrich, Taufkirchen, Germany) and 10 mM HEPES (Sigma-Aldrich, Taufkirchen, Germany). The plates are then washed 2× with HBSS buffer, and HBSS buffer which additionally contains 0.1% of BSA (bovine serum albumin; Sigma-Aldrich, Taufkirchen, Germany), 5.6 mM glucose and 0.05% of gelatine (Merck KGaA, Darmstadt, Germany) is added. After a further incubation of 20 minutes at room temperature, the plates are inserted into the FLIPR for the Ca^2+ measurement.
Alternatively, the plates are washed with buffer A (15 mM HEPES, 80 mM NaCl, 5 mM KCl, 1.2 mM CaCl2, 0.7 mM MgSO4, 2 g/l glucose, 2.5 mM probenecid), buffer A is added and the plates are loaded with 2.5 μM Fluo-4 and 0.025% of Pluronic F127 (Sigma-Aldrich, Taufkirchen, Germany). Thereafter, the cells are washed 2× with buffer A and incubated for 30 minutes with buffer A, which additionally contains 0.05% of BSA and 0.05% of gelatine, at room temperature and thereafter inserted into the FLIPR for the Ca^2+ measurement.
The Ca^2+-dependent fluorescence is measured before and after addition of substances (λex=488 nm, λem=540 nm). Quantification is by measurement of the highest fluorescence intensity (FC, fluorescence counts) over time.
The FLIPR protocol consists of 2 additions of substance. Test substances (10 μM) are first pipetted on to the cells and the Ca^2+ inflow is compared with the control (hB1R: Lys-Des-Arg^9-bradykinin >=50 nM; rB1R: Des-Arg^9-bradykinin 10 μM). This gives the information in % activation based on the Ca^2+ signal after addition of Lys-Des-Arg^9-bradykinin (>=50 nM) or Des-Arg^9-bradykinin (10 μM).
After incubation for 10-20 minutes, Lys-Des-Arg^9-bradykinin (hB1R) or Des-Arg^9-bradykinin (rB1R) is applied in the concentration of the EC80 and the inflow of Ca^2+ is likewise determined.
Antagonists lead to a suppression of the Ca^2+ inflow. % inhibition compared with the maximum achievable inhibition is calculated.
To determine the IC50 value, the substances are added in various concentrations. Duplicate or triplicate determinations (n=2 or n=3) are carried out, and these are repeated in at least one further independent experiment (N>=2).
Preferably, the compounds have a B1R antagonistic action on the human receptor and/or on the rat receptor. The following data are given by way of example in the following table: (In this, “B1R Ant. h” represents “B1R antagonism human” and “B1R Ant. r” represents “B1R antagonism rat”)

The target of assay [2] is T2, human bradykinin 1 receptor (B1R) (Homo sapiens, UniProt P46663).
T2 construct: expressed in transfected cells; host or cells: CHO K1 cells
T2 sequence (P46663 1-353): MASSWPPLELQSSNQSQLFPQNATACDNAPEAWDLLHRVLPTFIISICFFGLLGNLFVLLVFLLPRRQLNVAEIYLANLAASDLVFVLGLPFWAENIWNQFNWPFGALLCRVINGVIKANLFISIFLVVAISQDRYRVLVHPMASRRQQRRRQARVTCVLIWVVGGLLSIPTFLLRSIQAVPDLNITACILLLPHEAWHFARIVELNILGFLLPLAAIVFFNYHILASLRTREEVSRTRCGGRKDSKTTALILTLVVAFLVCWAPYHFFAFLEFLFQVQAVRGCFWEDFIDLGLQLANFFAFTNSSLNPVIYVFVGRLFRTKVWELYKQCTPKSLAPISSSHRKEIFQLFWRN
Description: Functional investigation on the human bradykinin 1 receptor (B1R), Ca2+ FLIPR assay in CHO K1 hB1R cells. The format is cell-based. As to conditions: CHO-K1, B1R antagonism human; test substance 10 μM; Ca2+ FLIPR, CHO K1 hB1R cells; read-out: B1R Ant. h [10 μM] % Inhibition. The method, boiled down: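 Cells were dye-loaded with Fluo-4 plus probenecid, then test substances added and Ca2+ influx compared with agonist control for % activation. After 10-20 min, EC80 agonist (Lys-Des-Arg9-bradykinin human; Des-Arg9-bradykinin rat) was applied; suppression gave % inhibition and IC50 values.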

On to `CN(C)C(CCc1ccccc1)C1CCC(NC(=O)CNC(=O)c2nc(-c3cc(Cl)cc(Cl)c3)no2)CC1` (centres unmarked) [Example 790, 3-(3,5-dichloro-phenyl)-[1,2,4]oxadiazole-5-carboxylic acid {[4-(1-dimethylamino-3-phenyl-propyl)-cyclohexylcarbamoyl]-methyl}-amide], for which the inhibition at 10 µM in assay [1] came to 11%; in assay [2], 35%.
For `COc1ccccc1-c1noc(C(=O)NCC(=O)NCC2CCC(C(c3cccc(F)c3)N(C)C)CC2)n1` (centres unmarked) [Example 787, 3-(2-methoxy-phenyl)-[1,2,4]oxadiazole-5-carboxylic acid [({4-[dimethylamino-(3-fluoro-phenyl)-methyl]-cyclohexylmethyl}-carbamoyl)-methyl]-amide], the inhibition at 10 µM in assay [1] was determined as 11%; in assay [2] it was 19%.
Take `CN(C)C(CCc1ccccc1)C1CCC(NC(=O)CCNC(=O)c2nc(-c3ccc(Cl)cc3Cl)no2)CC1` (centres unmarked) [Example 788, 3-(2,4-dichloro-phenyl)-[1,2,4]oxadiazole-5-carboxylic acid {2-[4-(1-dimethylamino-3-phenyl-propyl)-cyclohexylcarbamoyl]-ethyl}-amide]: the inhibition at 10 µM in assay [1] turned out to be 11%; in assay [2] it was 90%.
For `COc1ccccc1-c1noc(C(=O)NCC(=O)NC2CCC(C(CCc3ccccc3)N(C)C)CC2)n1` (centres unmarked) [Example 782, 3-(2-methoxy-phenyl)-[1,2,4]oxadiazole-5-carboxylic acid {[4-(1-dimethylamino-3-phenyl-propyl)-cyclohexylcarbamoyl]-methyl}-amide], the values for the inhibition at 10 µM in assay [1] and in assay [2] were -11% and -6%, respectively.
With `CN(C)C(c1ccccc1)C1CCC(NC(=O)CNC(=O)c2nc(-c3cccs3)no2)CC1` (centres unmarked) [Example 764, 3-thiophen-2-yl-[1,2,4]oxadiazole-5-carboxylic acid {[4-(dimethylamino-phenyl-methyl)-cyclohexylcarbamoyl]-methyl}-amide], the inhibition at 10 µM was -31% in assay [1] and 17% in assay [2].
In the case of `CN(C)C(CCc1ccccc1)C1CCC(NC(=O)CNC(=O)c2nc(-c3c(Cl)cccc3Cl)no2)CC1` (centres unmarked) [Example 793, 3-(2,6-dichloro-phenyl)-[1,2,4]oxadiazole-5-carboxylic acid {[4-(1-dimethylamino-3-phenyl-propyl)-cyclohexylcarbamoyl]-methyl}-amide], the results for the inhibition at 10 µM in assay [1] and in assay [2] were 6% and 104%, respectively.
In the case of `O=C(COC1CCN(S(=O)(=O)c2c(Cl)cc(Cl)cc2Cl)C1)NC1CCC(C(c2ccccc2)N2CCOCC2)CC1` (centres unmarked) [Example 610, N-[4-(morpholin-4-ylphenylmethyl)-cyclohexyl]-2-[1-(2,4,6-trichlorobenzenesulfonyl)-pyrrolidin-3-yloxy]-acetamide], the figures for the inhibition at 10 µM in assay [1] and in assay [2] were 5% and 12%, respectively.
Consider `COc1ccc(-c2noc(C(=O)NCCC(=O)NC3CCC(C(CCc4ccccc4)N(C)C)CC3)n2)cc1OC` (centres unmarked) [Example 789, 3-(3,4-dimethoxy-phenyl)-[1,2,4]oxadiazole-5-carboxylic acid {2-[4-(1-dimethylamino-3-phenyl-propyl)-cyclohexylcarbamoyl]-ethyl}-amide], for which the values for the inhibition at 10 µM in assay [1] and in assay [2] were -6% and -11%, respectively.
`CN(C)C(c1ccccc1)C1CCC(NC(=O)CNC(=O)c2nc(CS(=O)(=O)c3ccccc3)no2)CC1` (centres unmarked) [Example 769, 3-benzenesulfonylmethyl-[1,2,4]oxadiazole-5-carboxylic acid {[4-(dimethylamino-phenyl-methyl)-cyclohexylcarbamoyl]-methyl}-amide]: the inhibition at 10 µM in assay [1] worked out at 39%; in assay [2], 15%.
As for `CN(C)C(c1ccccc1)C1CCC(NC(=O)CCNC(=O)c2nc(-c3ccc4c(c3)OCO4)no2)CC1` (centres unmarked) [Example 768, 3-benzo[1,3]dioxol-5-yl-[1,2,4]oxadiazole-5-carboxylic acid {2-[4-(dimethylamino-phenyl-methyl)-cyclohexylcarbamoyl]-ethyl}-amide], the inhibition at 10 µM in assay [1] was -2%; in assay [2] it was -3%.
